Data published in publication PMC11413503, “SCR‐7952, a highly selective MAT2A inhibitor, demonstrates synergistic antitumor activities in combination with the S‐adenosylmethionine‐competitive or the methylthioadenosine‐cooperative protein arginine methyltransferase 5 inhibitors in methylthioadenosine phosphorylase‐deleted tumors” (MedComm, 2024).

What was measured:
Format in all cases: cell-based
MAT2A protein expression = test: Immunoblot of MAT2A protein expression; conditions: 96 h, HCT116 MTAP−/− and WT cells
FANCA = test: RT-PCR of FANCA and DI-containing transcripts; conditions: 72 h
CHRM3 = CHRM3 (Homo sapiens, UniProt P20309); test: Mini-profiling panel, GPCR
Experimental: (§1) Further insight into selectivity was evaluated in a functional panel of 47 representative targets closely related to human life activities, including G protein‐coupled receptors, transporters, ion channels, kinases, nuclear hormone receptor targets, and nonkinase enzymes (Table S3).

ADRA2A = ADRA2A (Homo sapiens, UniProt P08913); test: Mini-profiling panel, GPCR
Experimental: as §1

OPRM1 = OPRM1 (Homo sapiens, UniProt P35372); test: Mini-profiling panel, GPCR
Experimental: as §1

DRD1 = DRD1 (Homo sapiens, UniProt P21728); test: Mini-profiling panel, GPCR
Experimental: as §1

OPRK1 = OPRK1 (Homo sapiens, UniProt P41145); test: Mini-profiling panel, GPCR
Experimental: as §1

CNR1 = CNR1 (Homo sapiens, UniProt P21554); test: Mini-profiling panel, GPCR
Experimental: as §1

HTR1A = HTR1A (Homo sapiens, UniProt P08908); test: Mini-profiling panel, GPCR
Experimental: as §1

CNR2 = CNR2 (Homo sapiens, UniProt P34972); test: Mini-profiling panel, GPCR
Experimental: as §1

HTR2B = HTR2B (Homo sapiens, UniProt P41595); test: Mini-profiling panel, GPCR
Experimental: as §1

HTR1B = HTR1B (Homo sapiens, UniProt P28222); test: Mini-profiling panel, GPCR
Experimental: as §1

HTR2A = HTR2A (Homo sapiens, UniProt P28223); test: Mini-profiling panel, GPCR
Experimental: as §1

CHRM2 = CHRM2 (Homo sapiens, UniProt P08172); test: Mini-profiling panel, GPCR
Experimental: as §1

CHRM1 = CHRM1 (Homo sapiens, UniProt P11229); test: Mini-profiling panel, GPCR
Experimental: as §1

OPRD1 = OPRD1 (Homo sapiens, UniProt P41143); test: Mini-profiling panel, GPCR
Experimental: as §1

DRD2S = DRD2S (Homo sapiens, UniProt P14416); test: Mini-profiling panel, GPCR
Experimental: as §1

ADRA1A = ADRA1A (Homo sapiens, UniProt P35348); test: Mini-profiling panel, GPCR
Experimental: as §1

Sequence of CHRM2 (P08172 whole entry, species assumed): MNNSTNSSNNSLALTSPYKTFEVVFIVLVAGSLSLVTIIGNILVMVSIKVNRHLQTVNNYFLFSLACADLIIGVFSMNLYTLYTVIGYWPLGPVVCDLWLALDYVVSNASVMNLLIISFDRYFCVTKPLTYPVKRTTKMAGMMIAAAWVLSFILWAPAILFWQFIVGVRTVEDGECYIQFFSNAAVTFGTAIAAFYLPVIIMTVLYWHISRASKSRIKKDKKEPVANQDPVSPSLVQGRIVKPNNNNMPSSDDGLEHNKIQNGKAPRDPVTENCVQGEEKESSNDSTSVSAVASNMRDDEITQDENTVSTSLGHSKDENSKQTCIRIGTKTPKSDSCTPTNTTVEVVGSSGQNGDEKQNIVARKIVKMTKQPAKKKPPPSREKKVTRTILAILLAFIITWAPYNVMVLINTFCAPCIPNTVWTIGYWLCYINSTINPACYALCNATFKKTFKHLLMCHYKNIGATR
Sequence of HTR1B (P28222 whole entry, species assumed): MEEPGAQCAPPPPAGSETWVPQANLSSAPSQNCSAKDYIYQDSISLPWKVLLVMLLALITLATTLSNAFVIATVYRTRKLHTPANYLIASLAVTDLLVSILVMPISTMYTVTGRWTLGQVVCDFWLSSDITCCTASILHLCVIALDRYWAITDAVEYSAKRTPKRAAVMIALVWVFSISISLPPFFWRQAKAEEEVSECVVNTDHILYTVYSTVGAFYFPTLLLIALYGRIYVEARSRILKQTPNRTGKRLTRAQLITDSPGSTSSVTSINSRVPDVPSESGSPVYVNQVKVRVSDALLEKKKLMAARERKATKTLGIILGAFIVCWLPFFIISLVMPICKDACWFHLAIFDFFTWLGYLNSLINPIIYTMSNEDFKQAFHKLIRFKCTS
Sequence of OPRK1 (P41145 whole entry, species assumed): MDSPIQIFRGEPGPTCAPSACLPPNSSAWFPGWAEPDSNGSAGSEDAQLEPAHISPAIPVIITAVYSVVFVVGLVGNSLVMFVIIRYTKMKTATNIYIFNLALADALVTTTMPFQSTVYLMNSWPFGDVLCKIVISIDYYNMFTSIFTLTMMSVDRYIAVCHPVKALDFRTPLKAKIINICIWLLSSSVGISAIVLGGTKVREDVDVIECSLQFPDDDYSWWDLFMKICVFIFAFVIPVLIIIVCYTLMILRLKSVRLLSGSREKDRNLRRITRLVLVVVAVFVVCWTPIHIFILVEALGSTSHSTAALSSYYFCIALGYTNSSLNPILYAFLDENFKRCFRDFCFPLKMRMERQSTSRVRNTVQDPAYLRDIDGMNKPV
Sequence of ADRA1A (P35348 whole entry): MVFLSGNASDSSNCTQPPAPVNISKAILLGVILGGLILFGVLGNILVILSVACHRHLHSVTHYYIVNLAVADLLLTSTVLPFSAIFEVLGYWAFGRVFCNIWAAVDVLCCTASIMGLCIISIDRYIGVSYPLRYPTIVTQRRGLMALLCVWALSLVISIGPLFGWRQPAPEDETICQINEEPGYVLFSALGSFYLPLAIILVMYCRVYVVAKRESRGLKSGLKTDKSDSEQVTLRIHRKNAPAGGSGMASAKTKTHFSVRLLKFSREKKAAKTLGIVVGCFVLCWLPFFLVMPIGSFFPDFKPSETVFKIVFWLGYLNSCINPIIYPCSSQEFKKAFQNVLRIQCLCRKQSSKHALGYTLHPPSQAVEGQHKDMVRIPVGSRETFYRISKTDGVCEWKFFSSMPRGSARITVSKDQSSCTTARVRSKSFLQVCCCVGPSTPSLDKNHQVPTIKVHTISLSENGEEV
Sequence of HTR2A (P28223 whole entry): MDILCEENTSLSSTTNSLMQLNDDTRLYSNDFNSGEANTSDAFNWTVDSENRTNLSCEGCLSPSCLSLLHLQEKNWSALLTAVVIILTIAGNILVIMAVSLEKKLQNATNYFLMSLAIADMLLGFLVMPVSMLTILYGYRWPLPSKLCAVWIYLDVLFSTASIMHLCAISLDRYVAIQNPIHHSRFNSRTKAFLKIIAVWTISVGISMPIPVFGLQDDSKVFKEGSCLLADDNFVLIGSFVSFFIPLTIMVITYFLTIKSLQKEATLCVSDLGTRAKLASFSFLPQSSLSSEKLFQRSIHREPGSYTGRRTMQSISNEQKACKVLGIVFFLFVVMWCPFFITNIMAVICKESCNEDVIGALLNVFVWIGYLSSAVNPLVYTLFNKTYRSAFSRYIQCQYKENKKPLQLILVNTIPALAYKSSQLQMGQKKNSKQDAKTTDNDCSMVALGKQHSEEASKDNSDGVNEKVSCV
Sequence of CHRM3 (P20309 whole entry, species assumed): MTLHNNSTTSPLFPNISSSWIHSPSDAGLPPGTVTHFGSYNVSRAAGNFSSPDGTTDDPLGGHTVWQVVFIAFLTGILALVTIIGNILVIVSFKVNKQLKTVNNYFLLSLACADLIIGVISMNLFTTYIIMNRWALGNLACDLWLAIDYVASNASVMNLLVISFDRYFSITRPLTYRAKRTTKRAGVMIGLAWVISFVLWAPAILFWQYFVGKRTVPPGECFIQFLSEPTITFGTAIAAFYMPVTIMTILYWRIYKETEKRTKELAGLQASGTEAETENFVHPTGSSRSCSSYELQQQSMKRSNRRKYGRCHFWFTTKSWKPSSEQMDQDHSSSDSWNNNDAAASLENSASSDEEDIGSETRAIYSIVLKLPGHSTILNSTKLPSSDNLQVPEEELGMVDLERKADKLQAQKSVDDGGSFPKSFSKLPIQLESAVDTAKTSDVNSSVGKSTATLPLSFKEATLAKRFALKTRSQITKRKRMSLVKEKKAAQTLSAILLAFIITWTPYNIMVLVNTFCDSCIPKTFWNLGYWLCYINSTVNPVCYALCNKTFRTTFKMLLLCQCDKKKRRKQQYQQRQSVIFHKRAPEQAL
Sequence of DRD2S (P14416 1-414 isoform P14416-2): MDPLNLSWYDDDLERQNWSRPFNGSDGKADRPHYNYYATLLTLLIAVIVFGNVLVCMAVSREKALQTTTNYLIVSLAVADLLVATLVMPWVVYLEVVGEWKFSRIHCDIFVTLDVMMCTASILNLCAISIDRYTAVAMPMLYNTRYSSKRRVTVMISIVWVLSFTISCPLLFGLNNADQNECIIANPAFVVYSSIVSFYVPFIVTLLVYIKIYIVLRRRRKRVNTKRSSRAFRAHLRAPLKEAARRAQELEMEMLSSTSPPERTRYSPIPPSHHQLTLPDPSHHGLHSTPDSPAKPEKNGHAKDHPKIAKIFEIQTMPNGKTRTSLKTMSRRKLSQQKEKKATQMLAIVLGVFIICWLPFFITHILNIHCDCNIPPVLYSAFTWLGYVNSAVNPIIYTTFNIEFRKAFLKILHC
Sequence of DRD1 (P21728 whole entry, species assumed): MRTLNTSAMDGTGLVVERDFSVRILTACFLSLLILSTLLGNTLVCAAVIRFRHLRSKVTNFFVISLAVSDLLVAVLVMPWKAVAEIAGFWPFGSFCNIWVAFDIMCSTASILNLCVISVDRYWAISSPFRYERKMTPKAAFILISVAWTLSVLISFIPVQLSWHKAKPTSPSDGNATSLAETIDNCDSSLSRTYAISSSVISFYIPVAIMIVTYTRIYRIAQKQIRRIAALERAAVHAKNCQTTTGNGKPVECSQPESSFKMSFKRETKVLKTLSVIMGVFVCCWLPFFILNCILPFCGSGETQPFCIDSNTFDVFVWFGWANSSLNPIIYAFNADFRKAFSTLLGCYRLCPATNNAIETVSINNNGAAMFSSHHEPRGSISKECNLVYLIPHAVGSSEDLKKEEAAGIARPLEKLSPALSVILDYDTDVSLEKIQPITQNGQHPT
Sequence of HTR1A (P08908 whole entry, species assumed): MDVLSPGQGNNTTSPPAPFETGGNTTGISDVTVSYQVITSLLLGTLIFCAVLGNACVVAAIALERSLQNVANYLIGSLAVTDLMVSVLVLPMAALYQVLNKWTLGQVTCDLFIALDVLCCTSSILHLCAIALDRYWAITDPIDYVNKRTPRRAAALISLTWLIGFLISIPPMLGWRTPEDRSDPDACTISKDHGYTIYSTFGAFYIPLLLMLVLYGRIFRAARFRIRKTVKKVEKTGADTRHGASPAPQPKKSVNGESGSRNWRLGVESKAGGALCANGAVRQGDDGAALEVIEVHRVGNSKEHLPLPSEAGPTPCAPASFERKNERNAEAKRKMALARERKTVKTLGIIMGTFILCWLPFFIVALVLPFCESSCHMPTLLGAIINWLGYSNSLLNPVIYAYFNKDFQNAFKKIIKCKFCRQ
Sequence of HTR2B (P41595 whole entry, species assumed): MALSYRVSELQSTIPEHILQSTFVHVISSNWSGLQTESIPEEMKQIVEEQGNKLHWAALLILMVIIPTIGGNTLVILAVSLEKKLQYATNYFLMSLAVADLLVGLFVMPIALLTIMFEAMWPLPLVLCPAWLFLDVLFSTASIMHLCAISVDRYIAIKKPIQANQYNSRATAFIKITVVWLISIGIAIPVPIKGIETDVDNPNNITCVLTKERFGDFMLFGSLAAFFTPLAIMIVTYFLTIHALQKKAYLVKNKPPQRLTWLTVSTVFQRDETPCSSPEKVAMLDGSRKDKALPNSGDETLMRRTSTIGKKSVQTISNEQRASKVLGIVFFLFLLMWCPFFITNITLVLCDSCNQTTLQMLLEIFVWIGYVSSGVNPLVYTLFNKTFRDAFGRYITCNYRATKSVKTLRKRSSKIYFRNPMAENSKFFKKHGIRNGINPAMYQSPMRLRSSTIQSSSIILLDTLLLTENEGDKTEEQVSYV
Sequence of CNR2 (P34972 whole entry, species assumed): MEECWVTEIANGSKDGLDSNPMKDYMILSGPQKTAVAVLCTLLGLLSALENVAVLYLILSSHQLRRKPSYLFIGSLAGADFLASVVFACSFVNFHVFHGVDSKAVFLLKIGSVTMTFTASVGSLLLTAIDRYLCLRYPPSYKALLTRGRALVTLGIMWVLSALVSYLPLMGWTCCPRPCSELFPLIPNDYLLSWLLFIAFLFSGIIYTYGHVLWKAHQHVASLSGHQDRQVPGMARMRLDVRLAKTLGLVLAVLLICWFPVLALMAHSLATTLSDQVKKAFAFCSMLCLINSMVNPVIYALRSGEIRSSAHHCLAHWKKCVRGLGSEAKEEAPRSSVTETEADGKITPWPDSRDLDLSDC

Cn1cnc2c(=O)n(-c3cccnc3C3CC3)c3cc(Cl)ccc3c21 [SCR‐7952, 7‐chloro‐5‐(2‐cyclopropylpyridin‐3‐yl)‐1‐methyl‐1,5‐dihydro‐4H‐imidazo[4,5‐c]quinolin‐4‐one]
expression of MAT2A protein (MAT2A protein expression): upregulated
expression of FANCA DI-containing transcripts (FANCA): significantly upregulated
total levels of FANCA mRNA (FANCA): reduced
EC50 (CHRM3): > 10 µM
IC50 (CHRM3): > 10 µM
EC50 (ADRA2A): > 10 µM
IC50 (ADRA2A): > 10 µM
EC50 (OPRM1): > 10 µM
IC50 (OPRM1): > 10 µM
EC50 (DRD1): > 10 µM
IC50 (DRD1): > 10 µM
EC50 (OPRK1): > 10 µM
IC50 (OPRK1): > 10 µM
EC50 (CNR1): > 10 µM
IC50 (CNR1): > 10 µM
EC50 (HTR1A): > 10 µM
IC50 (HTR1A): > 10 µM
EC50 (CNR2): > 10 µM
IC50 (CNR2): > 10 µM
EC50 (HTR2B): > 10 µM
IC50 (HTR2B): > 10 µM
EC50 (HTR1B): > 10 µM
IC50 (HTR1B): > 10 µM
EC50 (HTR2A): > 10 µM
IC50 (HTR2A): > 10 µM
EC50 (CHRM2): > 10 µM
IC50 (CHRM2): > 10 µM
EC50 (CHRM1): > 10 µM
IC50 (CHRM1): > 10 µM
EC50 (OPRD1): > 10 µM
IC50 (OPRD1): > 10 µM
EC50 (DRD2S): > 10 µM
IC50 (DRD2S): > 10 µM
EC50 (ADRA1A): > 10 µM
IC50 (ADRA1A): > 10 µM
